# Data from paper PMC4936777 (ACS chemical neuroscience, 2015).
# Legend:
# [1] = test system: isolated, intact rat trabecular muscle; assay: Force development of isolated intact trabecular muscle; details: 100 μM
# C57/Bl6 mice = assay: Pharmacological activity and EEG in mice after IV bolus; assay type: in vivo, mouse
# [2] = biological target: T1, horse spleen apoferritin (HSAF) (Equus caballus, UniProt P02791); assay: 1-aminoanthracene; assay type: binding
# T1 sequence (P02791 2-175 limits assumed): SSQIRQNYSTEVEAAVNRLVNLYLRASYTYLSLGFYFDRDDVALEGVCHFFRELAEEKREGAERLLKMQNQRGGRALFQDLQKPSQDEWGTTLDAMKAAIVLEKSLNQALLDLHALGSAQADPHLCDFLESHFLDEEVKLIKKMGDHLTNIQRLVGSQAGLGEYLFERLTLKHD
# [3] = biological target: T1, horse spleen apoferritin (HSAF); assay: [3H]AziPm photolabel competition with HSAF; assay type: binding; details: One μM ligand
# α1β2γ2L GABAA receptor = α1β2γ2L GABAA receptor (Homo sapiens, UniProt P14867+P18507+P47870); assay: Two electrode voltage clamp of GABAA receptors expressed in X. laevis oocytes; assay type: cell-based; details: for modulation of GABA EC10 current: coexposure with GABA EC10, −80 mV; for direct activation of the receptor in the absence of GABA: fropofol at 5 and 50 μM
# [4] = biological target: T2, human serum albumin (hSA) (Homo sapiens, UniProt P02768); details: single site binding model
# [5] = biological target: T2, human serum albumin (hSA); assay: biochemical
# in vivo = details: C57/B6, mouse, iv
# [6] = biological target: human serum albumin (hSA) domain III (Homo sapiens, UniProt P02768); assay: in vitro
# [7] = test system: albino Xenopus laevis tadpoles; assay type: in vivo
# physchem = assay type: physicochemical; details: water, thermodynamic from solid
# [8] = biological target: T1, horse spleen apoferritin (HSAF); assay: Isothermal titration calorimetry with HSAF; assay type: binding
compound,measurement,setting,value
"CC(C)c1cccc(C(C)C)c1O [propofol, 2,6-diisopropylphenol, reference compound]",depression (reduction) of maximum force development,[1]; room temperature,49 ± 4%
same,loss of righting reflex in mice,C57/Bl6 mice; 20 mg/kg,produced
same,Kd,[2],10 µM
same,reduction in [3H]AziPm binding to HSAF,[3],31%
same,modulation of GABA EC10 current,α1β2γ2L GABAA receptor,concentration-dependent increase in current up to 80 μM
same,direct activation of the receptor in the absence of GABA,α1β2γ2L GABAA receptor,minor direct activation
"CC(C)c1cccc(C(C)C)c1F [fropofol, 2-fluoro-1,3-diisopropylbenzene]",stoichiometry n for hSA (ITC),[4],1.3 ± 0.9
same,depression (reduction) of maximum force development,"[1]; LBN/F1, rat",35 ± 1%
same,Kd,[5],91 µM
same,concentration at 45 s,in vivo; 96 mg/kg,38000 ng/g
same,concentration at 10 min,in vivo; 200 mg/kg,51000 ng/g
same,observable effects in mice,"C57/Bl6 mice; 96 mg/kg, bolus tail vein injection, 10% lipid emulsion",no observable effects
same,toxicity in mice in the following days postinjection,C57/Bl6 mice; 180 mg/kg IV,no toxicity was observed
same,time to resume normal activity in mice,"C57/Bl6 mice; C57/B6, mouse, in vivo",2 to 3 h
same,EEG recording in mice,"C57/Bl6 mice; mouse, in vivo",Phenotypical seizure activity
same,EEG recordings and physical observation in mice,"C57/Bl6 mice; mouse, in vivo",generalized tonic-clonic seizure-like activity
same,loss of righting reflex in mice,C57/Bl6 mice; up to the highest dose,not with even the highest dose
same,inhibition at 75 µM,[6],37 ± 12%
same,Kd,[2],0.7 µM
same,loss-of-mobility endpoints in tadpoles,"[7]; 3–100 μM, 60 and 90 min exposure",none of the X. laevis tadpoles within any dose group exhibited the standard loss-of-mobility endpoints
same,time to resume normal swimming behaviors after exchange for fresh pond water,"[7]; albino, Xenopus laevis, in vivo",10 to 15 min
same,solubility at 24 h,physchem,116 ± 4.4 µM
same,Kd,[8],1.7 µM
same,fold increase in affinity for HSAF relative to propofol (ITC),[8]; relative to propofol,4- to 5 fold
same,reduction in [3H]AziPm binding to HSAF,[3],61%
same,effect on propofol positive modulation of the GABAA receptor,"α1β2γ2L GABAA receptor; 50 μM fropofol, with GABA EC10 and propofol",no significant change
same,modulation of GABA EC10 current,α1β2γ2L GABAA receptor,no significant modulation or inhibition
same,direct activation of the receptor in the absence of GABA,α1β2γ2L GABAA receptor,no significant direct activation
same,effect on 5 μM propofol potentiation of GABAA receptor currents,"α1β2γ2L GABAA receptor; saturating concentrations of fropofol, with GABA EC10",no significant alteration
"NCCCC(=O)O [GABA, γ-Aminobutyric acid, reference compound]",Hill coefficient,"α1β2γ2L GABAA receptor; GABA concentration–response, mean ± SEM",0.87 ± 0.04
